Test results: patent US5853731A, “Thromboxane A2 Receptor antagonism and antioxidant action of cinnamophilin and its derivatives, their pharmaceutical compositions and uses” (National Science Council, priority 1997, dated 1998)
Where two headings read alike, the source gives them in different places.

What was measured:
[1] = tested on: rabbit platelets; assay: Aggregation of washed rabbit platelet suspension induced by AA, PAF, collagen, U-46619, ADP and thrombin; type: cell-based
Description: A. Preparation of aggregation inducing agent
1. Collagen (bovine tendon) in 15 mM aqueous acetic acid was homogenized at 4° C. to form a well dispersed suspension in 1 mg/ml and stocked at -70° C. Before using, it was thawed and well homogenized.
2. PAF was dissolved in CCl4 and stocked at […] Before using, it was diluted with deionized water.
3. […] and sodium arachidonate (AA) were dissolved in deionized water for use.
B. Preparation of platelets
A suspension of platelets was prepared according to the reported method. EDTA (100 mM) and the blood obtained from rabbit's ear vein were mixed in the ratio of 1:4, and immediately centrifuged (120× g) at room temperature for 10 minutes. Platelet-rich plasma was subjected to further centrifuge (500× g) for another 10 minutes. After the plasma was removed, the platelets in the lower layer were suspended in the Tyrode solution containing EDTA (2 mM) and bovine serum albumin (3.5 mg/ml), and subjected to centrifuge (500× g) again for 10 minutes. The platelets obtained were suspended in a Tyrode solution containing no EDTA, and was adjusted to about 4.5×10^8 cells/ml by a cell counter. 1 mM of calcium ion (Ca^2+) was added to the suspension. 30 minutes after the addition, the experiment was conducted. The composition of Tyrode […]: NaCl (136.9), KCl (2.7), NaH2 PO4 (0.4), NaHCO3 (11.9), glucose (11.1).
C. Platelet aggregation and ATP release reaction test
The method reported by Born (J. Physiol. 168, 178, 1963) was used to determine the platelet aggregation by a Lumi-aggregometer (Model 1020, Payton, Canada). Platelet suspension (0.4 ml) was added into a small glass tube coated with silicone, and stirred at 900 rpm with a small magnetic stirrer. Unless otherwise specified, the antagonist was added 1 minute before the inducing agent, and all the reactions were carried out at 37° C. The aggregation was calculated by following formula: […]
aggregation (% )=(light absorption before adding inducing agent-light absorption after adding inducing agent)/(light absorption before adding inducing agent-light absorption of Tyrode solution)×100% […]
| Platelets were precincubated with 1a, 1b, 1c, 1e, 2 or DMSO (0.5%, | control) at 37° C. for 3 min, then the inducer was added.

[2] = tested on: TXA2 receptor; assay: Large scale screening test: TXA2 receptor antagonism; type: biochemical
[3] = target: T1, rat thoracic aorta (Rattus norvegicus, UniProt P34978); assay: Rat aortic contraction caused by U-46619; type: cell-based, Wistar rat; conditions: for activity at 0.3 µM / activity at 1 µM / activity at 3 µM / activity at 10 µM: rat, read-out: Contraction (% of maximal contraction); for activity at 0.3 µM: cinnamophilin 0.3 μM; for activity at 1 µM: cinnamophilin 1 μM; for activity at 3 µM: cinnamophilin 3 μM; for activity at 10 µM: cinnamophilin 10 μM
T1 construct: The thoracic aorta was isolated and excess fat and connective tissue were removed; from tissue; host or cells: thoracic aorta rings of Wistar rats
T1 sequence (P34978 1-341): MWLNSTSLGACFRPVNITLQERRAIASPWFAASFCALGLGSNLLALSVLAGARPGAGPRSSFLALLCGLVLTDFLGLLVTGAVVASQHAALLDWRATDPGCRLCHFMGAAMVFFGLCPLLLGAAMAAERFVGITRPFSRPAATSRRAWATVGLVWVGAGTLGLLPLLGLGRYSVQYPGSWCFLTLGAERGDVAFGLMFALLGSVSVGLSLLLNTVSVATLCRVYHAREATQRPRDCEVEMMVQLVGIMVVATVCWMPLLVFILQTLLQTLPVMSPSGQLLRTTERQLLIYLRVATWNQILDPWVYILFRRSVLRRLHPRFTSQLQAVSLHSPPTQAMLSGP
Description: A. Rat Aortic Contraction
Wistar rats of either sex weighing 250 g to 300 g were killed by a blow to the head. The thoracic aorta was isolated and excess fat and connective tissue were removed. Vessels were cut into rings of about 5 mm in length and mounted in organ baths containing 5 ml Krebs solution of the following composition (mM): NaCl (118.4), KCl (4.7), CaCl (1.9), MgSO4 (1.2), KH2 PO4 (1.2), NaHCO3 (25.0) and glucose (11.7). The tissue bath solution was maintained at 37° C. and gassed with 95% O2 :5% CO2 mixture. Two stainless steel hooks were inserted into the aortic lumen, one was fixed while the other was connected to a transducer. Aortae were equilibrated in the medium for 90 min with three changes of Krebs solution and maintained under an optimal tension of 1 g before specific experimental protocols were initiated.
Contraction was recorded isometrically via a force-displacement transducer connected to a Grass polygraph. Aortae were allowed to preincubate for 15 minutes with cinnamophilin before generating the cumulative concentration-response curve with each agonist for 15-30 min at 3 min intervals. Results are expressed as a percentage of the maximal control response for each agonist.

SMILES: COc1cc(CC(C)C(C)C(=O)c2ccc(O)c(OC)c2)ccc1O (centres unmarked) [Compound 1, cinnamophilin]
- Aggregation (%) ([1]; inducer AA (100 μM), conc 5 μM, control 92.1 ± 1.3): 83.8 ± 4.6%
- Aggregation (%) ([1]; inducer AA (100 μM), conc 10 μM, control 92.1 ± 1.3): 79.0 ± 6.3%
- Aggregation (%) ([1]; inducer AA (100 μM), conc 20 μM, control 92.1 ± 1.3): 42.4 ± 3.0%
- Aggregation (%) ([1]; inducer AA (100 μM), conc 50 μM, control 92.1 ± 1.3): 3.8 ± 3.5%
- Aggregation (%) ([1]; inducer ADP (20 μM), conc 300 μM, control 81.6 ± 3.0): 75.6 ± 9.2%
- Aggregation (%) ([1]; inducer PAF (2 ng/ml), conc 300 μM, control 91.7 ± 2.0): 83.5 ± 8.0%
- Aggregation (%) ([1]; inducer U-46619 (1 μM), conc 200 μM, control 89.4 ± 1.2): 22.1 ± 2.4%
- Aggregation (%) ([1]; inducer collagen (10 μg/ml), conc 50 μM, control 93.6 ± 1.0): 87.0 ± 1.6%
- Aggregation (%) ([1]; inducer collagen (10 μg/ml), conc 100 μM, control 93.6 ± 1.0): 44.7 ± 10.0%
- Aggregation (%) ([1]; inducer collagen (10 μg/ml), conc 200 μM, control 93.6 ± 1.0): 0.0 ± 0.0%
- Aggregation (%) ([1]; inducer thrombin (0.1 U/ml), conc 300 μM, control 94.8 ± 2.0): 94.6 ± 1.4%
- TXA2 receptor antagonizing property [2]: TXA2 receptor antagonizing properties
- Kb ([3]; against U-46619, 0.5% DMSO as control, read-out: pA2, rat aortic contraction induced by U-46619 (converted)): 50.1 nM
- activity at 0.3 µM ([3]; U-46619 0.005 μM): 0%
- activity at 0.3 µM ([3]; U-46619 0.01 μM): 8 ± 2%
- activity at 0.3 µM ([3]; U-46619 0.02 μM): 16 ± 4.9%
- activity at 0.3 µM ([3]; U-46619 0.05 μM): 35 ± 2%
- activity at 0.3 µM ([3]; U-46619 0.1 μM): 52 ± 3%
- activity at 0.3 µM ([3]; U-46619 0.2 μM): 65 ± 4%
- activity at 0.3 µM ([3]; U-46619 0.5 μM): 79 ± 2%
- activity at 0.3 µM ([3]; U-46619 1 μM): 85 ± 4%
- activity at 0.3 µM ([3]; U-46619 2 μM): 92 ± 4%
- activity at 1 µM ([3]; U-46619 0.02 μM): 3%
- activity at 1 µM ([3]; U-46619 0.05 μM): 11 ± 2%
- activity at 1 µM ([3]; U-46619 0.1 μM): 22 ± 3%
- activity at 1 µM ([3]; U-46619 0.2 μM): 35 ± 3.2%
- activity at 1 µM ([3]; U-46619 0.5 μM): 53 ± 3.1%
- activity at 1 µM ([3]; U-46619 1 μM): 55 ± 4%
- activity at 1 µM ([3]; U-46619 2 μM): 81 ± 4%
- activity at 1 µM ([3]; U-46619 5 μM): 88 ± 3%
- activity at 3 µM ([3]; U-46619 0.05 μM): 0%
- activity at 3 µM ([3]; U-46619 0.1 μM): 8 ± 3.7%
- activity at 3 µM ([3]; U-46619 0.2 μM): 15 ± 4.3%
- activity at 3 µM ([3]; U-46619 0.5 μM): 34 ± 5.6%
- activity at 3 µM ([3]; U-46619 1 μM): 50 ± 5.6%
- activity at 3 µM ([3]; U-46619 2 μM): 65 ± 5%
- activity at 3 µM ([3]; U-46619 5 μM): 81 ± 3%
- activity at 3 µM ([3]; U-46619 10 μM): 90 ± 3%
- activity at 10 µM ([3]; U-46619 0.2 μM): 6 ± 4.3%
- activity at 10 µM ([3]; U-46619 0.5 μM): 15 ± 3.9%
- activity at 10 µM ([3]; U-46619 1 μM): 31 ± 3.8%
- activity at 10 µM ([3]; U-46619 2 μM): 45 ± 3%
- activity at 10 µM ([3]; U-46619 5 μM): 65 ± 5%
- activity at 10 µM ([3]; U-46619 10 μM): 86 ± 4%
